Laboratory results published in patent US9655886B2, “Substituted 2,3,4,5-tetrahydro-1H-pyrido[4,3-b]indoles, methods for use thereof” (priority 2015, dated 2017).
pIC50: −log10 of the molar value.

Columns and labels:
BALB/c male mice [1] = test: Training Mice in the Morris Water labyrinth, scopolamine; format: in vivo; conditions: scopolamine 0.6 mg/kg; 1.2.1(5)HCl 0.1 mg/kg, 1.2.1(1)HCl 1 mg/kg, tacrine 3 mg/kg; FIG. 11-12
Protocol: A circular pool of 100 cm diameter and of 30 cm sides was used. It was filled with water at 20-22° C. A circular ceramic platform of 14 cm height was placed in the pool. The behavior of the animals was registered using an automated computer video system in addition with software package of movement analyzer Any-maze (Stoelting Co., US). The experiments were carried out on aged male mice of BALB/c line weighing 20-24 grams. Before the experiments mice fit for learning were selected. This was done by placing the platform 1 cm above the water level and putting an animal on the platform for 20 seconds. Then the mouse was put in the water on the opposite side of the pool and allowed to find the platform and climb onto it for 60 seconds, where it was left for additional 20 seconds. After that the mouse was repeatedly immersed in the water on the opposite side of the pool and allowed to search for the platform. If it failed in finding the platform within 60 seconds the experimentator helped it to find the platform and climb onto it. If the mice couldn't find the platform itself in two consecutive attempts it was excluded from the experiment.
During the next two days the platform was placed 0.5 centimeters lower the water level. Every day the mice were given four attempts for finding the platform within 60 seconds. The time interval between the attempts was 20 seconds, during which the mice stayed on the platform. Every day before the first attempt the mice was placed on the platform for 20 seconds. The time needed for finding and climbing the platform was registered. The animals were sunk in water in two different places on the side of the pool opposite to the platform.
The animals of the control group were injected with physiological solution. At least 8 animals were used in each group.
On the third day the platform was removed and each animal was placed in the pool once for a period of 60 seconds. The time each mouse spent in the area where the platform had been located during the previous days was registered. […]

BALB/c male mice [2] = test: Mice Behavior an Elevated Cross Shaped Labyrinth (tranquilizing action); format: in vivo; conditions: preference index for open sections, number of defecations; FIG. 19-21
Source text: The length of each section in the labyrinth is 30 cm, the width is 5 cm, the height of the walls is 15 cm. Two opposite sections are closed by transparent walls on the sides and on the butt ends, the other two sections are lit and opened. A mouse was placed in the center of the labyrinth and for the next five minutes the number of entries the open and closed sections and the time spent in each type of section was registered. […] The animals usually avoid the open sections (the preference index is between 0.2 and 0.3).

SHK male mice = test: Recognition of New Objects by Mice Under Scopolamine and MK-801; format: in vivo; conditions: scopolamine 1 mg/kg and MK-801 0.2 mg/kg; FIG. 13-14
Protocol: The experiments were carried out in a closed cross shaped labyrinth which consisted of 4 peripheral sections connected with the central chamber via a 7×7 cm hole. The labyrinth was made of black plastic and its sections were of 14×14×14 cm size. The top cover of the labyrinth was transparent.
A mouse was placed in the central section of the labyrinth and allowed to investigate the environment. A mouse was considered to have entered a section once all of its four paws were inside the chamber. A test was considered to be completed when the mouse had moved 12 times between the sections, having made a total of 13 visits. The floor of the labyrinth was cleaned after each animal.
With each mouse the test was carried out twice with 1 hour interval.
During the first test, each section of the labyrinth contained a circular plastic cup of 3 cm height and 7 cm diameter. During the second test the cover in each of the two opposing sections was replaced by a conical glass bulb of 7 cm height and 4 cm across the bottom. The time that the mice spent in each section of the labyrinth was registered and the index of new object recognition was calculated as the ratio of the time spent in the sections with the bulbs to the time spent in all sections of the labyrinth. If no preference is given to the sections with new objects the index is 0.5.
When new objects appear the mice spend more time in the section containing them that results in an increased recognition index. Scopolamine (1 mg/kg) and MK-801 (0.2 mg/kg) disturbed learning (memory) that leads to lowering of the recognition index.

BALB/c male mice [3] = test: Passive Avoidance of Mice in a Shuttle Chamber, scopolamine or MK-801 (Example 8); format: in vivo; conditions: scopolamine 0.3 mg/kg or MK-801 0.1 mg/kg; SB-742457 1 mg/kg; FIGS. 5-10
Protocol: A shuttle chamber (Ugo Basile, Italy) consisted of two sections was used. […] The sections were connected via a hole which could be shut with a vertical door. The floor was made of transverse metal bars on which DC current impulses could be fed. Experiments were carried out on aged male mice of line BALB/c weighing 20-24 grams.
On the first day of the experiment 30 minutes before training the mice were injected intraintestinally with physiological solution of scopolamine (0.3 mg/kg) or scopolamine in combination with antagonists of 5-HT6 receptors 1.2.1(2)HCl, 1.2.1(4)HCl or 1.2.1(5)HCl. Each group consisted of at least 8 animals. The animals were placed in the light section, and the latent period of the first entry into the dark chamber was registered. Then the vertical door was closed and the animal was punished by 0.6 mA DC current for 3 seconds. After that the animal was carried back to its living cell. In 22-24 hours the same animal was placed in the light section of the shuttle chamber once again and the latent period before its entry into the dark section, the total time of its stay in the light section and the number of entries into the dark section were registered. Each observation lasted for 5 minutes.
The experiment was carried out in the same way as in example 7. On the first day 30 minutes before training the mice were injected intra-intestinally with a physiological solution of scopolamine (0.3 mg/kg) or MK-801(0.1 mg/kg).

5-HT6 receptor = target: T1, 5-HT6 receptor (Homo sapiens, UniProt P50406); test: Inhibition of serotonine stimulated intracellular cAMP in HEK 293 cells with expressed 5-HT6 receptor (LANCE cAMP); format: cell-based; conditions: HEK 293 cells with artificially expressed 5-HT6 receptor; reduction of cAMP induced by serotonine
T1 construct: expressed in transfected cells; host or cells: HEK 293
T1 sequence (P50406 whole entry): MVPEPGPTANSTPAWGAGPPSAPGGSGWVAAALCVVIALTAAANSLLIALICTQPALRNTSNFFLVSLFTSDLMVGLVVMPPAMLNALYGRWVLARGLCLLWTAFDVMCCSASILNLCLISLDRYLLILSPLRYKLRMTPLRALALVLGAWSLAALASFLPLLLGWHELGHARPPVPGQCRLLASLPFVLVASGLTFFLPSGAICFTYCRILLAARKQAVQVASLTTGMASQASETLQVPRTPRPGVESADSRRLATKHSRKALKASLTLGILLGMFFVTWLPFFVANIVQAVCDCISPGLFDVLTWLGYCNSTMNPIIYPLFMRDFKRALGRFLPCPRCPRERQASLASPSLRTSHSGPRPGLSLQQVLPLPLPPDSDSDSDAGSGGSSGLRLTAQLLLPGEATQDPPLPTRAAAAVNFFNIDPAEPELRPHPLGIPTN
Protocol: The concentration of intracellular cAMP was determined using a LANCE cAMP reagent (PerkinElmer) by the method described by the manufacturer: [http://las.perkinelmer.com/content/Manuals/MAN_LANCEcAMP384KitUser.pdf].

BALB/c male mice [4] = test: Passive Avoidance of Mice in a Shuttle Chamber, memory disturbed by scopolamine (Example 7); format: in vivo; conditions: scopolamine 0.3 mg/kg, injected 30 minutes before training; FIGS. 2-4
Protocol: A shuttle chamber (Ugo Basile, Italy) consisted of two sections was used. […] The sections were connected via a hole which could be shut with a vertical door. The floor was made of transverse metal bars on which DC current impulses could be fed. Experiments were carried out on aged male mice of line BALB/c weighing 20-24 grams. On the first day of the experiment 30 minutes before training the mice were injected intraintestinally with physiological solution of scopolamine (0.3 mg/kg) or scopolamine in combination with antagonists of 5-HT6 receptors 1.2.1(2)HCl, 1.2.1(4)HCl or 1.2.1(5)HCl. Each group consisted of at least 8 animals. The animals were placed in the light section, and the latent period of the first entry into the dark chamber was registered. Then the vertical door was closed and the animal was punished by 0.6 mA DC current for 3 seconds. After that the animal was carried back to its living cell. In 22-24 hours the same animal was placed in the light section of the shuttle chamber once again and the latent period before its entry into the dark section, the total time of its stay in the light section and the number of entries into the dark section were registered. Each observation lasted for 5 minutes. The experiment was carried out during the day time in an isolated laboratory using white noise at a level of about 70 decibel above the human hearing threshold. Scopolamine causes the disturbance of training (memory loss) which results in […]. The fact that 5-HT6 receptor antagonists can improve the learning ability that has been disturbed by scopolamine is regarded as evidence for their nootropic effect.

SMILES	improvement of mice's training, Morris water labyrinth (BALB/c male mice [1])	tranquilizing action, elevated cross shaped labyrinth (BALB/c male mice [2])	nootropic action, new object recognition (SHK male mice)	nootropic action, passive avoidance (BALB/c male mice [3])	nootropic action (memory enhancement disturbed by scopolamine), passive avoidance (BALB/c male mice [4])	further results
Nc1c2c(nc3ccccc13)CCCC2 [tacrine]	statistically significant improvement of mice's training	–	–	–	–	–
O=C1CC2(CCCC2)CC(=O)N1CCCCN1CCN(c2ncccn2)CC1 [Buspiron]	–	tranquilizing action	–	–	–	–
O=S(=O)(c1ccccc1)c1cnc2c(N3CCNCC3)cccc2c1 [SB-742457]	–	–	nootropic action	inactive	–	–
CN1CCc2c(c3ccccc3n2C#Cc2ccccc2)C1 [1.3(1), 2-methyl-5-phenylethynyl-2,3,4,5-tetrahydro-1H-pyrido[4,3-b]indole]	–	–	–	–	–	pIC50 (5-HT6 receptor): 5.39
CC12CC3CC(C)(C1)CC(N)(C3)C2 [memantine]	–	–	nootropic action	–	–	–
Cc1ccc2c(c1)c1c(n2CCc2ccccc2)CCN(C)C1.Cl [1.2.1(1)HCl, 2,8-dimethyl-5-(2-phenylethyl)-2,3,4,5-tetrahydro-1H-pyrido[4,3-b]indole hydrochloride]	statistically significant improvement of mice's training	tranquilizing action, which is the most prominent	nootropic action, the level of which is the most prominent	highest activity	–	–
Cc1ccc2c(c1)c1c(n2CCc2ccncc2)CCN(C)C1.Cl [1.2.1(2)HCl, 2,8-dimethyl-5-[2-(pyridin-4-yl)ethyl]-2,3,4,5-tetrahydro-1H-pyrido[4,3-b]indole hydrochloride]	–	–	–	–	nootropic action which is the most prominent	–
Cc1ccc2c(c1)c1c(n2CCc2ccccn2)CCN(C)C1.Cl [1.2.1(4)HCl, 2,8-dimethyl-5-[2-(pyridin-2-yl)ethyl]-2,3,4,5-tetrahydro-1H-pyrido[4,3-b]indole hydrochloride]	–	–	–	–	nootropic action which is the most prominent	–
Cc1ccc2c(c1)c1c(n2CCc2ccc(C)nc2)CCN(C)C1.Cl [1.2.1(5)HCl, 2,8-dimethyl-5-[2-(6-methylpyridin-3-yl)ethyl]-2,3,4,5-tetrahydro-1H-pyrido[4,3-b]indole hydrochloride]	statistically significant improvement of mice's training	tranquilizing action	nootropic action	nootropic action	nootropic action	–
